# Measurements: patent US4241069A, “3-Methylene flavanones and 3-methylene chromanones” (Miles Laboratories, Inc., priority 1979, dated 1980)
# Columns and labels:
# S. aureus NRRL B2747 [1] = assay: MIC, agar incorporation method; format: cell-based, Staphylococcus aureus; details: 24 hours; for MIC: Staphylococcus aureus, NRRLB2747, 32° C., read-out: Minimal Inhibitory Concentration
# Protocol: (§1) The compounds of the present invention were tested for their ability to inhibit the growth of microorganisms by in vitro tests. Generally the in vitro tests involve growing representative microorganisms under conditions favorable to such growth and measuring the effectiveness of one or more compounds in inhibiting or destroying the growth of the microorganisms. The microorganisms used include representative bacteria, fungi and yeasts.
# (§2) A representative selection of the test microorganisms were cultured in a nutrient broth, such as, for example, Eugon, commercially available from Difco Laboratories, Detroit, Michigan. Bacteria and Candida species were cultured for 24 hours at 32°-37° C. and fungi were cultured for approximately one week at 32° C. Inocula were prepared by suspending the growth or spores from a slant culture in sufficient sterile normal (0.9 percent) saline or Eugon broth, to yield cell or spore concentrations of 1,000,000 cells per milliliter. Anaerobic bacteria were cultured for 48-72 hours at 32°-37° C. in a thioglycollate containing medium, for example, Fluid Thioglycollate medium or NIH thioglycollate broth, commercially available from Difco Laboratories.
# (§3) The compounds of the present invention were tested for activity against bacteria, yeasts and fungi by the agar incorporation method described below. MA 1347, 3-(dimethylaminomethyl)flavanone (disclosed in U.S. Pat. No. 3,753,985) was used as a comparative standard along with controls for each solvent system used.
# (§4) A series of agar plates containing two-fold dilutions of each compound to be tested, ranging in concentration from 100 to 3.1 mcg/ml of agar medium was prepared. Aliquots of each concentration (100, 50, 25, 12.5, 6.2, and 3.1) prepared in N,N-dimethylformamide or 50 percent aqueous DMF were added to liquid Eugon agar at 48° C. (one part test solution to 100 parts agar). In some cases, tests with further dilutions to 0.125 mcg/ml were conducted. The agar medium, containing the 3-methylene flavanone or chromanone compound to be tested, was then dispensed into petri dishes and allowed to solidify. The solidified plates were kept overnight at room temperatures to dry the surface of the agar.
# (§5) The agar plates were then inoculated with a drop of the standardized cell or spore suspension. Inoculated plates were incubated at 32° C. The inhibition end-point or minimum inhibitory concentration (MIC) shown in Table D represent the lowest concentration of test compound which inhibited the growth of the microorganism. Visual determination of growth inhibition was used. Bacteria and yeast end-points were determined after 24 hours incubation; molds, dermatophytes and anaerobes after 48-72 hours incubation. MIC values shown as ranges represent the extremes found in repeat assays. Virtually all such values were written plus or minus one dilution, the accepted variation of a two-fold dilution assay.
# C. albicans NRRL Y-477 = assay: MIC, agar incorporation method; format: cell-based; details: Candida albicans, NRRLY477, 32° C., 24 hours, read-out: Minimal Inhibitory Concentration
# Protocol: as §1, §2, §3, §4, §5
# A. fumigatus NRRL 165 = assay: MIC, agar incorporation method; format: cell-based; details: Aspergillus fumigatus, NRRL165, 32° C., 48-72 hours, read-out: Minimal Inhibitory Concentration
# Protocol: as §1, §2, §3, §4, §5
# [2] = system: Sarcina subflava ATCC 7468; assay: MIC, agar incorporation method; format: cell-based; details: ATCC7468, 32° C., 24 hours, read-out: Minimal Inhibitory Concentration
# Protocol: as §1, §2, §3, §4, §5
# T. mentagrophytes CDC = assay: MIC, agar incorporation method; format: cell-based; details: Trichophyton mentagrophytes, 32° C., 48-72 hours, read-out: Minimal Inhibitory Concentration
# Protocol: as §1, §2, §3, §4, §5
# [3] = system: Staphylococcus aureus ATCC 6538; assay: MIC, agar incorporation method; format: cell-based; details: S. aureus ATCC 6538, 32° C., 24 hours; for MIC: Staphylococcus aureus, ATCC6538, read-out: Minimal Inhibitory Concentration
# Protocol: as §1, §2, §3, §4, §5
# T. rubrum ATCC 10218 = assay: MIC, agar incorporation method; format: cell-based; details: Trichophyton rubrum, ATCC10218; 32° C., 48-72 hours; read-out: Minimal Inhibitory Concentration
# Protocol: as §1, §2, §3, §4, §5
# C. guillermondii VM 42 = assay: MIC, agar incorporation method; format: cell-based; details: 32° C., 24 hours; read-out: Minimal Inhibitory Concentration
# Protocol: as §1, §2, §3, §4, §5
# [4] = system: Aspergillus niger ATCC 16404; assay: MIC, agar incorporation method; format: cell-based; details: ATCC16404, 32° C., 48-72 hours, read-out: Minimal Inhibitory Concentration
# Protocol: as §1, §2, §3, §4, §5
# A. fumigatus NRRL 163 = assay: MIC, agar incorporation method; format: cell-based; details: 32° C., 48-72 hours; for MIC: Aspergillus fumigatus, NRRL163, NRRL 163, read-out: Minimal Inhibitory Concentration
# Protocol: as §1, §2, §3, §4, §5
# [5] = system: Candida albicans ATCC 10231; assay: MIC, agar incorporation method; format: cell-based; details: ATCC10231, C. albicans ATCC 10231, 32° C., 24 hours, read-out: Minimal Inhibitory Concentration
# Protocol: as §1, §2, §3, §4, §5
# [6] = system: Pseudomonas aeruginosa ATCC 14502; assay: MIC, agar incorporation method; format: cell-based; details: ATCC14502, 32° C., 24 hours, read-out: Minimal Inhibitory Concentration
# Protocol: as §1, §2, §3, §4, §5
# T. mentagrophytes TM-2 = assay: MIC, agar incorporation method; format: cell-based; details: Trichophyton mentagrophytes, TM2, 32° C., 48-72 hours, read-out: Minimal Inhibitory Concentration
# Protocol: as §1, §2, §3, §4, §5
# [7] = system: Escherichia coli ATCC 8739; assay: MIC, agar incorporation method; format: cell-based; details: ATCC8739, 32° C., 24 hours, read-out: Minimal Inhibitory Concentration
# Protocol: as §1, §2, §3, §4, §5
# [8] = system: Proteus vulgaris NRRL B123; assay: MIC, agar incorporation method; format: cell-based; details: NRRLB123, 32° C., 24 hours, read-out: Minimal Inhibitory Concentration
# Protocol: as §1, §2, §3, §4, §5
# C. tropicalis NRRL Y1410 = assay: MIC, agar incorporation method; format: cell-based; details: Candida tropicalis, NRRLY1410; 32° C., 24 hours; read-out: Minimal Inhibitory Concentration
# Protocol: as §1, §2, §3, §4, §5
# [9] = system: Trichophyton mentagrophytes ATCC 4807; assay: MIC, agar incorporation method; format: cell-based; details: ATCC4807, 32° C., 48-72 hours, read-out: Minimal Inhibitory Concentration
# Protocol: as §1, §2, §3, §4, §5
# T. tonsurans ATCC 10217 = assay: MIC, agar incorporation method; format: cell-based; details: Trichophyton tonsurans, ATCC10217; 32° C., 48-72 hours; read-out: Minimal Inhibitory Concentration
# Protocol: as §1, §2, §3, §4, §5
# C. krusei VM 29B = assay: MIC, agar incorporation method; format: cell-based; details: Pichia kudriavzevii, VM29B; 32° C., 24 hours; read-out: Minimal Inhibitory Concentration
# Protocol: as §1, §2, §3, §4, §5
# [10] = system: Streptococcus faecalis ATCC 10541; assay: MIC, agar incorporation method; format: cell-based; details: Enterococcus faecalis, ATCC10541; 32° C., 24 hours; read-out: Minimal Inhibitory Concentration
# Protocol: as §1, §2, §3, §4, §5
# S. aureus NRRL B2747 [11] = assay: MIC, agar incorporation method, anaerobic; format: cell-based; details: Staphylococcus aureus, NRRLB2747, 48 hours at 35° C., GasPak Anaerobic Jar, read-out: Minimal Inhibitory Concentration
# Protocol: as §1, §2, §3, §4, §5
# (§6) *Anaerobic: 48 hours incubation at 35° C. GasPak Anaerobic Jar
# [12] = system: Clostridium acetobutylicum ATCC 824; assay: MIC, agar incorporation method, anaerobic; format: cell-based; details: ATCC824, 48 h, 48 hours at 35° C., GasPak Anaerobic Jar, read-out: Minimal Inhibitory Concentration
# Protocol: as §1, §2, §3, §4, §5, §6
# [13] = system: Bacteriodides fragilis ATCC 8482; assay: MIC, agar incorporation method, anaerobic; format: cell-based; details: 48 hours at 35° C., GasPak Anaerobic Jar, read-out: Minimal Inhibitory Concentration
# Protocol: as §1, §2, §3, §4, §5, §6
# [14] = system: Clostridium sporogenes ATCC 11437; assay: MIC, agar incorporation method, anaerobic; format: cell-based; details: ATCC11437, 48 hours at 35° C., GasPak Anaerobic Jar, read-out: Minimal Inhibitory Concentration
# Protocol: as §1, §2, §3, §4, §5, §6
# [15] = system: Propionobacterium acnes ATCC 6919; assay: MIC, agar incorporation method, anaerobic; format: cell-based; details: 48 hours at 35° C., GasPak Anaerobic Jar, read-out: Minimal Inhibitory Concentration
# Protocol: as §1, §2, §3, §4, §5, §6
# [16] = system: Microsporum gypseum ATCC 14683; assay: MIC, agar incorporation method; format: cell-based; details: 48-72 hours
# Protocol: as §1, §2, §3, §4, §5
Structure (SMILES),MIC (S. aureus NRRL B2747 [1]) [µg/mL],MIC (C. albicans NRRL Y-477) [µg/mL],MIC [2] [µg/mL],MIC (T. mentagrophytes CDC) [µg/mL],MIC [3] [µg/mL],MIC (T. rubrum ATCC 10218) [µg/mL],MIC (C. guillermondii VM 42) [µg/mL],MIC [4] [µg/mL],MIC (A. fumigatus NRRL 163) [µg/mL],MIC [5] [µg/mL],MIC [6] [µg/mL],MIC (T. mentagrophytes TM-2) [µg/mL],MIC [7] [µg/mL],MIC [8] [µg/mL],MIC (C. tropicalis NRRL Y1410) [µg/mL],MIC [9] [µg/mL],MIC (T. tonsurans ATCC 10217) [µg/mL],MIC (C. krusei VM 29B) [µg/mL],MIC [10] [µg/mL],MIC (S. aureus NRRL B2747 [11]) [µg/mL],other results
"C=C1C(=O)c2ccccc2OC1(c1ccccc1)c1ccccc1 [Ex. 20, 3-methylene-2-phenyl flavanone]",0.25 to 0.5,> 100,1,> 100,0.5,> 100,> 100,> 100,> 100,> 100,> 100,> 100,> 100,> 100,> 100,> 100,> 100,> 100,0.78 to 1,0.25 to 1,MIC (A. fumigatus NRRL 165): > 100 µg/mL; MIC [12]: 1 µg/mL; MIC [13]: 0.125 µg/mL; MIC [14]: 0.5 µg/mL; MIC [15]: 0.78 to 3.1 µg/mL
"CN(C)CC1C(=O)c2ccccc2OC1c1ccccc1 (stereo not drawn) [MA 1347, 3-(dimethylaminomethyl)flavanone, reference compound]",6.2 to 12.5,25,12.5,6.2 to 12.5,6.2 to 12.5,3.1 to 12.5,50 to 100,50,6.2 to 25,25 to 50,> 100,6.2 to 12.5,> 100,> 100,50 to 100,6.2 to 12.5,6.2,12.5 to 25,50,25,"Minimal Inhibitory Concentration (S. aureus NRRL B2747 [1]; 32° C.): 6.2 to 12.5 µg/mL; Minimal Inhibitory Concentration [3]: 6.2 to 12.5 µg/mL; Minimal Inhibitory Concentration (A. fumigatus NRRL 163; NRRL 163): 5.2 to 25 µg/mL; Minimal Inhibitory Concentration ([16]; 32° C.): 6.12 to 12.5 µg/mL; MIC ([16]; Nannizzia gypsea, ATCC14683, 32° C., read-out: Minimal Inhibitory Concentration): 6.2 to 12.5 µg/mL; MIC [12]: ≤ 100 µg/mL; MIC [13]: 3.1 µg/mL; MIC [14]: 6.2 µg/mL; MIC [15]: 12.5 µg/mL"
